Data reported in patent publication US20250195682A1, “IMPROVED CELL-TARGETING BINDING MOLECULE” (priority 2018, published 2025).

Columns and labels:
[1] = tested on: SK-BR-3, JIMT-1, MDA-MB-468, A431, CaSki, HeLa, A2058; experiment: Control treatments, relative cell viability on various cancer cell lines; format: cell-based, human; settings: toxins up to 100.000 pM
Protocol: (§1) After treatment the cells were incubated for 72 hr at 37° C. before the cell viability was determined by a MTS-assay, performed according to the manufacturer's instruction (CellTiter 96@AQueous One Solution Cell Proliferation Assay, Promega). Briefly, the MTS solution was diluted 20× in DMEM without phenol red (PAN-Biotech GmbH) supplemented with 10% FBS (PAN-Biotech GmbH). The cells were washed once with 200 μL PBS per well, after which 100 μL diluted MTS solution was added per well. The plate was incubated for approximately 20-30 minutes at 37° C. Subsequently, the optical density at 492 nm was measured on a Thermo Scientific Multiskan FC plate reader (Thermo Scientific). For quantification the background signal of ‘medium only’ wells was subtracted from all other wells, before the ratio of untreated/treated cells was calculated, by dividing the background corrected signal of untreated wells over the background corrected signal of the treated wells.

HeLa cells (EGFR+) = experiment: Cell viability (MTS) assay, HeLa cells; format: cell-based, human; settings: co-administered with SO1861 + dianthin-EGF, 500 nM PAMAM (native, thiolated, PEGylated) or chloroquine, 667 nM dendron
Protocol: as §1

[2] = pH dependent hydrolysis of the hydrazone bond (MALDI-TOF-MS); format: physicochemical; settings: HCl solution at pH 3

**Q.** Which “influence on cell viability” value [1] does the source give for saporin here?
**A.** do not or hardly have any influence on cell viability

**Q.** Which “effect on SO1861-mediated endosomal escape of the targeted toxin and cell killing” value (HeLa cells (EGFR+)) does the source give for `CCN(CC)CCCC(C)Nc1ccnc2cc(Cl)ccc12` (stereo not drawn) [chloroquine] here?
**A.** inhibit the SO1861-mediated endosomal escape

**Q.** With `CC(=O)OC1C(C)OC(OC2C(C)OC(OC(=O)[C@]34CCC(C)(C)CC3C3=CCC5[C@@]6(C)CC[C@H](OC7OC(C(=O)O)C(O)C(OC8OCC(O)C(O)C8O)C7OC7OC(CO)C(O)C(O)C7O)[C@@](C)(/C=N/NC(=O)CCCCCN7C(=O)C=CC7=O)C6CC[C@@]5(C)[C@]3(C)C[C@H]4O)C(OC3OC(C)C(OC4OCC(O)C(OC5OC(CO)C(O)C(O)C5O)C4O)C(O)C3O)C2O)C(O)C1OC1OCC(O)C(O)C1O` (stereo partly drawn) [SO1861-EMCH] as the compound, how does the “hydrolysis of the hydrazone bond” value [2] read?
**A.** the hydrazone bond is responsive towards hydrolysis and gets cleaved
